Assay results published in patent US6346547B1, “N-substituted amino acids, antioxidant pharmaceutical compositions containing n-substituted amino acids and methods for preventing cardiovascular diseases and/or preventing and/or treating antioxidant responsive diseases therewith” (Checkpoint, Genetics, Inc., priority 1999, dated 2002).
Values joined by “and” are separate entries in the source; they are usually repeats but may differ in a detail not shown here. Equal values may be shown once.

How the values were obtained:
[1] = test system: human Low Density Lipoprotein; test: inhibition of copper catalyzed LDL autoxidation (FOX assay); format: biochemical
Experimental: The antioxidant performance of test compounds was evaluated by measuring the extent of low density lipoprotein hydroxyperoxide by copper catalyzed autoxidation using a published dye based color assay (FOX Assay, see Zadeh, “Methods in Enzymology”, 300, 58 (1999)). The assay is easily performed and read in a 96-well microtitre plate. Microtitre plate readers assure rapid measurement of optical density which gives precise replicate measurements. Samples are evaluated in duplicate of triplicate (n=2 or n=3) with FOX reagent to indicate the level of LDL-hydroperoxide formed. Samples containing only LDL and copper sulfate without test materials, served as a positive control for comparison with identical mixtures containing test materials (Tables 1-6). Inhibition is characterized by a lower optical density than that obtained without test materials (LDL and copper sulfate alone).
Briefly, the procedure involved mixing human Low Density Lipoprotein (Sigma Chemical Company L2139) at a concentration of between 200-1000 μg/mL in phosphate buffered saline pH−7.4 (Pierce #28372 BupH™ with copper sulfate to a final concentration of 10 μg/mL. Incubation at 25° C. or 37° C., open to air effected oxidation, the mixture was sampled at time zero and between 3 and 20 hours of incubation for measurement of hydroperoxide in the FOX assay. Samples 25-30 μL were diluted with 10 volumes of FOX reagent (ferrous ammonium sulfate and […], see Zadeh, noted above) and allowed to stand for 30 minutes. Thereafter they were read in a microtitre plate reader.
The inhibition of LDL oxidation by tricine, bicine, monocine, vitamin E, glycine-glycine (Good's buffer compound XIV) and seaweed extract was studied in the procedure above. Using the spectrophotometric technique known as the FOX assay, as described in Jiang, Z., et al., “Ferrous Ion Oxidation in Presence of Xylenol Orange for Detection of Lipid Hydroperoxide in Low Density Lipoprotein”, Analytical Biochemistry, Vol. 202, pp. 384-9 (1992), the oxidation of LDL's in the presence of known hydroxyl radical scavengers (vitamin E and Good's buffer glycine-glycine), and in the presence of therapeutic agents in accordance with the present invention (tricine, bicine, seaweed extract), was monitored. […] Norman Good et al., “Hydrogen Ion Buffers For Biological Research,” Biochemistry, vol. 5, p. 467 (1966). […] Table 6 is a comparison of tricine, bicine, monocine and vitamin E oxidation inhibition of LDL at 37° C., average n=3 measurement with standard deviation.

[2] = test system: rats; details: both, rat, in vivo, po, 14 days
Experimental: It is essential that any amino-acid-based compound used in accordance with the present invention have a low toxicity such that internal use in humans and other mammals is safe and well tolerated. Amino acid-based compounds used in accordance with the invention generally display no acute toxic effects at 1000 mg/Kg in rats after 2 weeks following oral administration. Preferably, amino acid-based compounds used in accordance with the present invention will display no effects at oral doses of at least 2000 mg/Kg in rats. […] For example, a cohort of rats can be fed a given dosage of an amino acid-based compound of general formula (I) and the relative toxic effects of the cohort can be monitored in comparison to a cohort fed a normal diet using standard EPA protocols.
Two cohorts of rats, each consisting of five females and five males, were marked and weighed. Each rat in a single cohort was administered 2000 mg/kg of tricine in a single oral dosage. Survival and body weight of the rats in each cohort was evaluated after 14 days to determine relative acute toxicity. Survival and general pathology was identical for both the control cohort and the tricine-treated cohort.

[3] = test system: New Zealand white rabbits; test: atherosclerotic lesions in thoracic aorta of cholesterol-fed rabbits; format: in vivo, rabbit; details: 12 weeks
Description: Ten female new Zealand white rabbits were divided into two groups of five (5) rabbits and subjected to an identical diet of Purina® rabbit chow supplemented with 1% cholesterol. […] A second group of five (5) rabbits received 1% tricine in their drinking water. Both groups were maintained under this feeding protocol for a period of twelve (12) weeks. Plasma samples were taken at study initiation and at two (2) week intervals throughout the study for measurement of total cholesterol. Systemic observations and body weights were regularly recorded. At twelve (12) weeks, the thoracic aorta was harvested from each animal, sliced longitudinally and preserved in 10% neutral formalin for subsequent analysis. Each aorta was individually stained with Sudan IV, and photographed for the extent of atherosclerotic lesions. Comparisons of percent atheroscledrotic lesions on the luminal surface between the groups enabled evaluation of the effect of tricine test article on atherosclerosis in this rabbit model.

[4] = test system: hippocampal neurons, CA1 area; test: gerbil forebrain ischemia (bilateral carotid occlusion): histology of CA1 neuronal damage; format: in vivo, Mongolian gerbil; parameters: Total Rating, severity of neuronal damage to CA1 area, individual gerbil: scale not given here; details: oral tricine 2000 mg/Kg 60 minutes before and after carotid occlusion, day 5
Experimental: Mongolian gerbils are subjected to bilaterial occlusion of carotid arteries to cause complete forebrain ischemia. The Mongolian gerbil is extensively used as a model of cerebral ischemia because of its unusual cerebral circulation resulting in sensitive and pronounced destruction of hippocampal neuron cells. as a result, bilateral occlusion of carotid arteries causes complete forebrain ischemia. The gerbils were divided into three groups, Group 1 gerbils were sham control and were administered vehicle (control) orally without carotid occlusion. Group 2 received oral tricine treatment at 2000 mg/Kg in vehicle solution both 60 minutes before and after carotid occlusion. Group […] gerbils received vehicle (control) 60 minutes before and after occlusion. The arteries were occluded after a midline cervical incision was made to expose both common carotid arteries. The surgery was performed on a heated surface to maintain body temperature. On completion of surgery, the animals were placed on Vetbed® and allowed to recover under a heat lamp. (Group 1) was subjected to the same surgical procedures except that the carotid arteries were not occluded. The day of surgery is identified as Day 1. Animals were killed on day 5, after completion of locomotor testing, by overdose with anaesthetic and perfusion with saline followed by a solution containing 10% neutral buffered formalin to fix the brain in situ. The brains were removed by dissection, 5 μm sections were taken at the level of the dorsal hippocampus, to coincide with CA1 area, and stained with haematoxylin and eosin. the sections were examined under light microscope, rated for severity of neuronal damage to the CA1 area.

[5] = test system: Mongolian gerbils; test: gerbil forebrain ischemia (bilateral carotid occlusion): locomotor activity; format: in vivo, Mongolian gerbil; details: individual gerbil, Group 3, approximately 96 hours after surgery
Experimental: Mongolian gerbils are subjected to bilaterial occlusion of carotid arteries to cause complete forebrain ischemia. The Mongolian gerbil is extensively used as a model of cerebral ischemia because of its unusual cerebral circulation resulting in sensitive and pronounced destruction of hippocampal neuron cells. as a result, bilateral occlusion of carotid arteries causes complete forebrain ischemia. The gerbils were divided into three groups, Group 1 gerbils were sham control and were administered vehicle (control) orally without carotid occlusion. Group 2 received oral tricine treatment at 2000 mg/Kg in vehicle solution both 60 minutes before and after carotid occlusion. […] The arteries were occluded after a midline cervical incision was made to expose both common carotid arteries. The surgery was performed on a heated surface to maintain body temperature. On completion of surgery, the animals were placed on Vetbed® and allowed to recover under a heat lamp. (Group 1) was subjected to the same surgical procedures except that the carotid arteries were not occluded. The day of surgery is identified as Day 1. At approximately 96 hours after surgery, animals were tested for changes in locomotor activity, over two (2) consecutive periods of 15 minutes, using an automated cage. The automated cages contained photoactivated beams at two (2) positions (a low height and a high height) that recorded the number of crossings each gerbil made in each of two consecutive 15 minute periods.

[6] = test system: hippocampal neurons, CA1 area; test: gerbil forebrain ischemia (bilateral carotid occlusion): histology of CA1 neuronal damage; format: in vivo, Mongolian gerbil; parameters: scale not given here; details: Group 3, 6 animals examined
[7] = test system: Mongolian gerbils; test: gerbil forebrain ischemia (bilateral carotid occlusion): locomotor activity; format: in vivo, Mongolian gerbil; details: individual gerbil, Group 3, approximately 96 hours after surgery, first 15 minute period
[8] = 10 mM, time 0 hours, 37° C., average n=3, none 0.03
[9] = 10 mM, time 3 hours, 37° C., average n=3, none 0.99
[10] = 1% tricine in drinking water, 1% cholesterol diet, Sudan IV stain
[11] = 1% tricine in drinking water, five rabbits, control mean 65

Compound: O=C(O)CN(CCO)CCO [Bicine, N,N-bis(hydroxyethyl)glycine]
- FOX assay OD (LDL hydroperoxide) [1, 8]: −0.02
- FOX assay OD (LDL hydroperoxide) [1, 9]: 0.02
- FOX assay OD (LDL hydroperoxide) ([1]; Bicine 25 μM, time 0 hours, room temperature, average n = 3): −0.010
- FOX assay OD (LDL hydroperoxide) ([1]; Bicine 25 μM, time 4 hours, room temperature, average n = 3, none 0.295): 0.050
- FOX assay OD (LDL hydroperoxide) ([1]; Bicine 50 μM, time 0 hours, room temperature, average n = 3): −0.007
- FOX assay OD (LDL hydroperoxide) ([1]; Bicine 50 μM, time 4 hours, room temperature, average n = 3, none 0.295): 0.030
- FOX assay OD (LDL hydroperoxide) ([1]; Bicine 100#M, time 0 hours, room temperature, average n = 3): −0.002
- FOX assay OD (LDL hydroperoxide) ([1]; Bicine 100#M, time 4 hours, room temperature, average n = 3, none 0.295): 0.04

Compound: O=C(O)CNCCO [Monocine, N-hydroxyethyl glycine]
- FOX assay OD (LDL hydroperoxide) [1, 8]: −0.04
- FOX assay OD (LDL hydroperoxide) [1, 9]: 0.05

Compound: O=C(O)CNC(CO)(CO)CO [Tricine, N-tris(hydroxymethyl)methyl glycine]
- preliminary acute toxicity level [2]: > 2000 mg/kg
- FOX assay OD (LDL hydroperoxide) [1, 8]: −0.01
- FOX assay OD (LDL hydroperoxide) [1, 9]: 0.05
- FOX assay OD (LDL hydroperoxide) ([1]; Tricine 25 μM, time 0 hours, room temperature, average n = 3): −0.012
- FOX assay OD (LDL hydroperoxide) ([1]; Tricine 25 μM, time 4 hours, room temperature, average n = 3, none 0.295): 0.061
- FOX assay OD (LDL hydroperoxide) ([1]; Tricine 50 μM, time 0 hours, room temperature, average n = 3): −0.007
- FOX assay OD (LDL hydroperoxide) ([1]; Tricine 50 μM, time 4 hours, room temperature, average n = 3, none 0.295): 0.038
- FOX assay OD (LDL hydroperoxide) ([1]; Tricine 100 μM, time 0 hours, room temperature, average n = 3): 0.0645
- FOX assay OD (LDL hydroperoxide) ([1]; Tricine 100 μM, time 4 hours, room temperature, average n = 3, none 0.295): 0.028
- Arch Area, percent atherosclerotic lesions on luminal surface, individual rabbit [3, 10]: 19% and 39% and 27% and 17% and 22%
- Descending Area, percent atherosclerotic lesions on luminal surface, individual rabbit [3, 10]: 21% (2×) and 28% and 8% and 17%
- Total Area, percent atherosclerotic lesions on luminal surface, individual rabbit [3, 10]: 20% and 38% and 26% and 14% and 21%
- Arch Area, Mean Value ([3]; 1% tricine in drinking water, five rabbits, control mean 63): 25%
- Descending Area, Mean Value [3, 11]: 19%
- Total Area, Mean Value [3, 11]: 24%
- Arch Area, Median Value ([3]; 1% tricine in drinking water, five rabbits, control median 65): 22%
- Total Area, Median Value ([3]; 1% tricine in drinking water, five rabbits, control median 67): 21%
- Descending Area, Median Value ([3]; 1% tricine in drinking water, five rabbits, control median 68): 21%
- reduced plaque deposits in the aorta ([3]; tricine treated rabbits versus control group): 63%
- Side 1 Rating, severity of neuronal damage to CA1 area, individual gerbil [4]: 3 (Marked→approximately 75% to 100% of neurons damaged) and 1 (Minimal→up to approximately 25% of neurons damaged) (5×)
- Side 2 Rating, severity of neuronal damage to CA1 area, individual gerbil [4]: 3 (Marked→approximately 75% to 100% of neurons damaged) and 1 (Minimal→up to approximately 25% of neurons damaged) (4×) and 0
- Total Rating, severity of neuronal damage to CA1 area, individual gerbil ([4]; sum of both sides): 6 and 2 (4×) and 1
- locomotor activity, beam crossings, High beam, Total [5]: 71 and 51 and 76 and 56 and 174
- locomotor activity, beam crossings, Low beam, Total [5]: 665 and 691 and 525 and 615 and 727 and 451
- locomotor activity, beam crossings, Low beam, 15 min ([5]; first 15 minute period): 455 and 559 and 456 and 553 and 543 and 372
- locomotor activity, beam crossings, High beam, 30 min ([5]; second 15 minute period): 15 and 7 and 9 and 16 and 12 and 64
- locomotor activity, beam crossings, Low beam, 30 min ([5]; second 15 minute period): 210 and 132 and 69 and 62 and 184 and 79
- Mean Score for Group ([6]; occluded vehicle Group 7: 4.3): 2.5
- Total Score for Group ([6]; occluded vehicle Group 7: 13 (3 animals)): 15
- locomotor activity, beam crossings, High beam, 15 min [7]: 56 and 44 (2×) and 67 and 55 and 110
